Measurements: PMC11056991, “Promising Anticancer Prodrugs Based on Pt(IV) Complexes with Bis-organosilane Ligands in Axial Positions” (Journal of Medicinal Chemistry, 2024)

Key:
[1] = test system: HIEC6 human healthy intestinal cells; test: MTT cell viability assay, HIEC6; format: cell-based; conditions: MTT; for Reduction in viability of healthy cells (HIEC6): 5 μM
Description: (§2) HIEC6 human healthy intestinal cells and HCT 116 and HT-29 human colon cancer cells were supplied by ATCC. Colon cancer cells were cultured in Dulbecco’s modified Eagle’s medium (DMEM) for HCT 116 and HT-29 supplemented with fetal bovine serum (10%). HIEC6 cells were cultured in Opti-MEM supplemented with fetal bovine serum (4%), HEPES (20 mM), glutamine (10 mM), and epidermal growth factor (10 ng/mL). Cells were maintained at 37 °C in a humidified atmosphere containing 5% CO2. Cells were seeded at 30% confluence in DMEM for HCT 116 and in Opti-MEM for HIEC6; after cell adhesion, HIEC6 cells were cultured in DMEM for 24h before being treated. All cells were treated with the indicated components at concentrations of 0.25–50 μM and incubated for 1–5 days as specified.
(§3) The MTT assay relies on a colorimetric reaction based on the capacity of living cells to reduce MTT to formazan and change the color to purple, which is easily measured by colorimetry. This assay estimates the cellular viability after the indicated treatments. Cells were treated with MTT (1:10 in culture medium) and incubated at 37 °C for 3 h for HCT 116 and HT-29 or 6 h for HIEC6. After removal of the medium, the formazan was resuspended in DMSO, transferred to p96 plates, and analyzed by a SpectraFLUOR (Tecan) at 542 nm. In all cases, viability was measured in duplicates of each point in three independent experiments.

[2] = test system: HCT 116 human colon cancer cells; test: MTT cell viability assay, HCT 116; format: cell-based; conditions: MTT
Description: as §2, §3

[3] = test system: p53 protein levels in HCT 116 cells; test: Western blot of p53 levels; format: cell-based, human; conditions: HCT 116, 48 h, increasing concentrations
Description: Confocal imaging of the DNA damage response was followed by immunofluorescence of histone gH2Ax foci at double-strand DNA breaks (DSB) (Figure 4A). […] However, none of the Pt(IV) prodrugs were able to increase p53 levels even at concentrations higher than those needed to reduce cell viability.
Cells were washed with iced PBS before extract preparation and scraped in whole-cell protein lysis buffer (62.5 mM Tris-HCl pH 6.8, 2% sodium dodecyl sulfate (SDS), 0.01% bromophenol blue sodium salt, and 10% glycerol). Whole-cell protein lysates were incubated 15 min at 95 °C and directly used as whole cell extract or frozen at −80 °C. Proteins from lysed cells or immunoprecipitates were denatured and loaded on sodium dodecyl sulfate polyacrylamide gels and then transferred to polyvinylidene difluoride membranes (Bio-Rad). After blocking with 5% (w/v) milk, the membrane was incubated with the corresponding primary antibodies, anti-p53 sc-126 (Santa Cruz Biotechnology) or anti-tubulin (Sigma-Aldrich), and secondary antibodies (Bio-Rad). The specific bands were analyzed using the ChemiDoc Imaging Systems (Bio-Rad).

HCT 116 cells = test: Trypan blue exclusion test; format: cell-based, human; conditions: HCT 116, 0.5 μM, 2 days
Description: HCT 116 cells were harvested by trypsinization followed by centrifugation at 500g for 5 min. The cell pellet was resuspended in 1 mL of PBS. Equal volumes of trypan blue (Bio-Rad cat. no. 1450021) 0.4% and cell suspension were mixed and incubated for 1–3 min at room temperature, and cell counting was carried out using a TC20 Automated Cell Counter (Bio-Rad cat. no. 1450102). The percentage of viable cells was calculated by dividing the number of viable cells per milliliter by the number total of cells per milliliter) × 100. Representative images were acquired using a Zeis light microscope with a 20× objective.

[4] = Stability in DMEM by 195Pt NMR; format: physicochemical; conditions: DMSO-d6/DMEM 1:4, 37 °C, 0, 24, 48, 120 h
Source text: We then decided to evaluate the stability of the two Pt(IV) complexes in the medium (DMEM) used to carry out the in vitro experiments, monitoring their kinetics by ^195Pt NMR at different times to evaluate the possible species formed over time. DMEM is supplemented with proteins and other molecules essential for cell growth (Experimental Section). Thus, similar to the reduction assays, we analyzed the Pt(II)/Pt(IV) region where the expected species appear. […] Both Pt(IV)/Pt(II) signals disappeared after 48 h, most likely again because of the binding of the complex to the proteins.
To each solution was then slowly and carefully added 300 μL of DMEM to avoid the precipitation of the complex, reaching a final concentration of 1:4 (DMSO-d6/DMEM). All these mixtures were performed using a thermoshaker. Each sample was monitored by ^195Pt NMR at 0, 24, 48, and 120 h.

[5] = 195Pt NMR reduction kinetics with ascorbic acid; format: physicochemical; conditions: AsA 4:1 excess, DMSO/D2O (4:1), 37 °C, 2, 6, 24 h
Description: (§1) AsA presents an intracellular concentration of 1 mM, whereas the GSH concentration is 2 mM.[38] This reactivity was monitored by ^195Pt NMR at different times. Thus, by analyzing the different regions where the signals of Pt(II)/Pt(IV) species appear, it is possible to identify and assign the different compounds formed during the reaction. In most cases, the regions where the Pt(II) and Pt(IV) signals appear are separated by more than 3000 ppm.[33]
We first studied the reduction of the complexes against AsA, monitoring the reaction in both the Pt(IV) and Pt(II) region at 2, 6, and 24 h. In both cases, we used a mixture of DMSO/D2O (4:1) to reach the solubilization of the complexes and the AsA. In the Pt(IV)-biSi-1 reduction experiment, during the first hour, only the signal at 1210 ppm appeared in the Pt(IV) region (Figure S13A), which corresponds to the original complex, and no signal was detected in the Pt(II) region.
Each solution was then slowly added to 100 μL of a solution of the corresponding reducing agent (AsA or GSH in an excess of 4:1 against each complex) in D2O at 37 °C. After that, 100 μL of DMSO-d6 was added carefully to each mixture, reaching a final concentration of […] (DMSO-d6/D2O). All of these mixtures were performed using a thermoshaker. Each sample was monitored by ^195Pt NMR at 2, 6, and 24 h.

[6] = 195Pt NMR reduction kinetics with glutathione; format: physicochemical; conditions: GSH 4:1 excess, DMSO/D2O (4:1), 37 °C, 2, 6, 24 h
Description: as §1
The reactivity of both complexes toward the reducing agent GSH was also studied using the DMSO/D2O (4:1) mixture. […] In the Pt(II) region, two signals appeared after 24 h at −2728 and −3405 ppm (Figure 2G). The first value is consistent with the cis-PtN2SX fraction,[41],[42] meaning that this species, once reduced to its Pt(II) homologue, coordinates with GSH by displacing a chloride ligand. The second signal corresponds to another Pt(II) moiety with more than one ligand containing sulfur atoms. […]
Each solution was then slowly added to 100 μL of a solution of the corresponding reducing agent (AsA or GSH in an excess of 4:1 against each complex) in D2O at 37 °C. […] Each sample was monitored by ^195Pt NMR at 2, 6, and 24 h.

[7] = 2 days, experiment with intermediates, Figure 3A
[8] = 2 days, (final complexes, Figure 3B)

N.N.[Cl-].[Cl-].[OH-].[OH-].[Pt+4] [oxoplatin, cis-Dichloro(diamine)-trans-dihydroxoplatinum(IV), reference compound]
Cell viability, HIEC6 5uM 2 days [1, 7]: 65.3 ± 10.9%
Cell viability, HCT 116 5uM 2 days [2, 7]: 82.9 ± 6.0%

cis-Dichloro(diisopropylamine)-trans-dihydroxoplatinum(IV) [iproplatin, reference compound]
Cell viability, HIEC6 5uM 2 days [1, 7]: 69.8 ± 6.3%
Cell viability, HCT 116 5uM 2 days [2, 7]: 73.6 ± 5.4%

N.N.[Cl][Pt][Cl] [cisplatin, Cisplatin, reference compound]
p53 levels [3]: increased p53 levels (at all concentrations)
Reduction in viability of healthy cells (HIEC6) ([1]; 2 days): 60%
Reduction of viability by trypan blue staining (HCT 116 cells): 20%
Cells survived, HCT 116 ([2]; 5 μM, 5 days chronic treatment): more than 50%

CCO[Si](CCCNC(=O)[O][Pt]([NH2])([NH2])([Cl])([Cl])[O]C(=O)NCCC[Si](OCC)(OCC)OCC)(OCC)OCC [Pt(IV)-biSi-1, cis-Dichloro(diamine)-trans-[3-(triethoxysilyl)propylcarbamate]platinum(IV)]
Stability in DMEM (Pt(IV) signal in 195Pt NMR) [4]: decreases with time up to 48 h, where a small fraction of the initial complex remains intact
Reduction of the Pt(IV) complex by AsA (Pt(IV) signal in 195Pt NMR) [5]: after 24 h, this signal underwent a marked decrease in intensity
Reduction of the Pt(IV) complex by GSH (Pt(IV) signal in 195Pt NMR) [6]: at 24 h, there is still a fraction of free complex without undergoing reduction
Cell viability, HIEC6 0.5uM 2 days ([1]; 0.5 uM, 2 days): 99.5 ± 1.8%
Cell viability, HIEC6 0.5uM 5 days ([1]; 0.5 uM, 5 days): 105.3 ± 3.6%
Reduction in viability of healthy cells (HIEC6) ([1]; 2 days): 60%
Cell viability, HIEC6 5uM 2 days [1, 8]: 40.0 ± 1.8%
IC50 ([1]; 48 h, supplementary CSV, read-out: IC50 (uM) HIEC6): 5.1 ± 0.7 µM
Reduction of viability by trypan blue staining (HCT 116 cells): 20%
Cell viability, HCT 116 0.5uM 2 days ([2]; 0.5 uM, 2 days): 70.1 ± 6.0%
Reduction of viability (cytotoxicity) of HCT 116 tumor cells ([2]; 0.5 μM, 2 days): very similar to those of cisplatin
Cell viability, HCT 116 0.5uM 5 days ([2]; 0.5 uM, 5 days): 87.0 ± 5.0%
Reduction in viability of cancer cells (HCT 116) ([2]; 5 μM, 2 days): 20%
Cell viability, HCT 116 5uM 2 days [2, 8]: 78.8 ± 3.1%
IC50 ([2]; 48 h, supplementary CSV, read-out: IC50 (uM) HCT 116): 8.9 ± 0.6 µM
